# pKi: −log10 of the molar value. Where two headings read alike, the source gives them in different places.
# Tests used:
# Falcipain 2 = Falcipain 2 (Plasmodium falciparum, UniProt Q8I6U4); assay: Cysteine protease inhibition, progress curve method, falcipain; assay type: biochemical; conditions: 10 uM Cbz-Leu-Arg-AMC, 100 mM Na acetate pH 5.5, 5 mM cysteine
# Method: Standard assay conditions for the determination of kinetic constants used 10 uM fluorogenic peptide substrate, Cbz-Phe-Arg-AMC for the cysteine proteases from Leishmania spp and Schistosoma Mansoni, Cbz-Leu-Arg-AMC for the cysteine proteases from Plasmodium falciparum and Trypanosoma brucei rhodesiensi, and Ac-Lys-Glu-Lys-Leu-Arg-AMC (4 uM final substrate concentration) for the cysteine protease from Trypoanosoma cruzi, and were determined in 100 mM Na acetate at pH 5.5 containing 5 mM cysteine. Stock substrate solutions were prepared at concentrations of […] in DMSO with 10 uM (4 uM for Ac-Lys-Glu-Lys-Leu-Arg-AMC) final substrate concentration in the assays. The final DMSO concentration was 2% and the final volume was 100 uL. All assays were conducted at ambient temperature. Product progress curves were generated over 20 to 30 minutes following formation of AMC product.
# Potential inhibitors were evaluated using the progress curve method. Assays were carried out in the presence of variable concentrations of test compound. Reactions were initiated by addition of enzyme to buffered solutions of inhibitor and substrate. Data analysis was conducted according to one of two procedures depending on the appearance of the progress curves in the presence of inhibitors. For those compounds whose progress curves were linear, apparent inhibition constants (Ki,app) were calculated according to equation 1 (Brandt et al., Biochemitsry, 1989, 28, 140):
# v=VmA/[Ka(1+I/Ki,app)+A] (1)
# Where v is the velocity of the reaction with maximal velocity Vm, A is the concentration of substrate with Michaelis constant of Ka, and I is the concentration of inhibitor.
# [AMC]=vsst+(v0−vss)[1−exp (−kobst)]/kobs (2)
# Where [AMC] is the concentration of product formed over time t, v0 is the initial reaction velocity and vss is the final steady state rate. Values for kobs were then analyzed as a linear function of inhibitor concentration to generate an apparent second order rate constant (kobs/inhibitor concentration or kobs/[I]) describing the time-dependent inhibition. A complete discussion of this kinetic treatment has been fully described (Morrison et al., Adv. Enzymol. Relat. Areas Mol. Biol., 1988, 61, 201).
# Exemplary inhibition data for the compounds used in the present method collected in accordance with the above-described procedure are listed in Table I.
# Cruzain = Cruzain (Trypanosoma cruzi, UniProt P25779); assay: Cysteine protease inhibition, progress curve method, cruzain; assay type: biochemical; conditions: 4 uM Ac-Lys-Glu-Lys-Leu-Arg-AMC, 100 mM Na acetate pH 5.5, 5 mM cysteine; read-out: Cruzain Ki
# Sequence of Cruzain (P25779 123-337): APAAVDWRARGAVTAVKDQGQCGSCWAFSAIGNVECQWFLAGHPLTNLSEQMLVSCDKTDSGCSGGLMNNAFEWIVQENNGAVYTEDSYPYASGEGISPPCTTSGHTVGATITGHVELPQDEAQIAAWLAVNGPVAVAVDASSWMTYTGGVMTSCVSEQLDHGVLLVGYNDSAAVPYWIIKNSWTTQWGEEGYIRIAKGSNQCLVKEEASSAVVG
# Summary of the method: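 Buffer was 100 mM sodium acetate pH 5.5 with 5 mM cysteine and 2% DMSO, at ambient temperature; reactions started with enzyme, and AMC formation was followed for 20–30 min. Substrates: Leishmania and Schistosoma, 10 uM Cbz-Phe-Arg-AMC; falcipain, 10 uM Cbz-Leu-Arg-AMC; cruzain, 4 uM Ac-Lys-Glu-Lys-Leu-Arg-AMC. Linear curves gave Ki,app; curved ones gave kobs/[I].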
# Rhodazain = Rhodazain (Trypanosoma brucei rhodesiense, UniProt Q95PM0); assay: Cysteine protease inhibition, progress curve method, rhodazain; assay type: biochemical, Trypanosoma brucei rhodesiensi; conditions: 10 uM Cbz-Leu-Arg-AMC, 100 mM Na acetate pH 5.5, 5 mM cysteine; for Ki: Rhodazain Ki (nM)
# Sequence of Rhodazain (Q95PM0 entry or part of it): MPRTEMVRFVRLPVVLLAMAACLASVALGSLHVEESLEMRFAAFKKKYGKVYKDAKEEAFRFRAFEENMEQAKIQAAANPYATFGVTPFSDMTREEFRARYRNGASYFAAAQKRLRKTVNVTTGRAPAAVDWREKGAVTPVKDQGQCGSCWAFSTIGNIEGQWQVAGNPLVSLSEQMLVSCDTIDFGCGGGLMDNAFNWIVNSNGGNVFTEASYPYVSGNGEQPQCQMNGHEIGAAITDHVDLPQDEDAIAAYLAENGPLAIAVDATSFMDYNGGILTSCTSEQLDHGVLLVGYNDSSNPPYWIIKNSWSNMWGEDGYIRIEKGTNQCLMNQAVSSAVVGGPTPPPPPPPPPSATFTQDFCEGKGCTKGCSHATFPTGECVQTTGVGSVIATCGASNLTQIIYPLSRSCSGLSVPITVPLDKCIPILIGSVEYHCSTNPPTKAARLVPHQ
# Sequence of Falcipain 2 (Q8I6U4 244-484): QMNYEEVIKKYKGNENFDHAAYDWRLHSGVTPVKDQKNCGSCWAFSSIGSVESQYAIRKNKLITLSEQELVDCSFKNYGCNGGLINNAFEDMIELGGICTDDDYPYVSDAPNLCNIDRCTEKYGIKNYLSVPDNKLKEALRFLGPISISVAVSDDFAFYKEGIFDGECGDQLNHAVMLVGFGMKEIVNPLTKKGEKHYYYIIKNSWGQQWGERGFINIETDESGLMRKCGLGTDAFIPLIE
pKi (Falcipain 2),Compound,pKi (Cruzain),Ki (Rhodazain) [nM],pKi (Rhodazain; read-out: Rhodazain Ki)
8.23,"COc1ccc(S(=O)(=O)N2CCC[C@@H](NC(=O)[C@H](CC(C)C)NC(=O)c3ccc(OC)c(OC)c3)C(=O)C2)cc1 [Example 107, 3,4-Dimethoxy-N—{(S)-1-[1-(4-methoxy-benzenesulfonyl)-3-oxo-azepan-4-ylcarbamoyl]-3-methyl-butyl}-benzamide]",,,
7.85,"CC(C)C[C@@H](NC(=O)c1cc2cc(OCCN3CCNCC3)ccc2o1)C(=O)N[C@@H]1CCCN(S(=O)(=O)c2ccccn2)CC1=O [Example 23, 5-(2-Piperizin-1-yl-ethoxy)-benzofuran-2-carboxylic acid {(S)-3-methyl-1-[3-oxo-1-(pyridine-2-sulfonyl)-azepan-4-ylcarbamoyl]-3-butyl}-amide]",,,
7.47,"CC(C)C[C@@H](NC(=O)c1cc2cc(OCCN3CCOCC3)ccc2o1)C(=O)N[C@@H]1CCCN(C(=O)Nc2ccccc2)CC1=O [Example 5, 4-((S)-4-Methyl-2-{[5-(2-morpholino-4-yl-ethoxy)-benzofuran-2-carbonyl]amino}-pentanoylamino)-3-oxo-azepane-1-carboxylic acid phenylamide]",,,
8.25,"COc1cccc(S(=O)(=O)N2CCC[C@H](NC(=O)[C@H](CC(C)C)NC(=O)c3cc4cccc(OC)c4o3)C(=O)C2)c1 [Example 138, 7-Methoxy-benzofuran-2-carboxylic acid-{(S)-1-[1-(3-methoxy-benzenesulfonyl)-3-oxo-azepan-4-ylcarbamoyl]-3-methyl-butyl}-amide]",,,
8.28,"COc1ccc(S(=O)(=O)N2CCCC(NC(=O)C(CC(C)C)NC(=O)c3ccc4c(c3)OCO4)C(=O)C2)cc1 (stereo in doubt) [Example 73, Benzo[1,3]dioxole-5-carboxylic acid {(S)-1-[1-(4-methoxy-benzenesulfonyl)-3-oxo-azepan-4-ylcarbamoyl]-3-methyl-butyl}-amide]",,,
7.37,"O=C(N[C@@H](CC1CCCCC1)C(=O)N[C@H]1CCCN(S(=O)(=O)c2cccc[n+]2[O-])CC1=O)c1ccc(-c2cccc(C(F)(F)F)c2)o1 [Example 169, 5-(3-Trifluoromethyl-phenyl)-furan-2-carboxylic acid {(S)-2-cyclohexyl-1-[3-oxo-1-(1-oxy-pyridine-2-sulfonyl)-azepan-4-ylcarbamoyl]-ethyl}-amide]",,,
8.47,"COc1cccc2cc(C(=O)N[C@@H](CC(C)C)C(=O)N[C@H]3CCCN(S(=O)(=O)c4ccc(Cl)cc4)CC3=O)oc12 [Example 133, 7-Methoxy-benzofuran-2-carboxylic acid-{(S)-1-[1-(4-chloro-benzenesulfonyl)-3-oxo-azepan-4-ylcarbamoyl]-3-methyl-butyl}-amide]",,,
7.19,"CC(C)C[C@@H](NC(=O)c1cc2cc(OCCN3CCCCC3)ccc2o1)C(=O)N[C@@H]1CCCN(S(=O)(=O)c2ccccc2)CC1=O (stereo in doubt) [Example 9, 5-(2-Piperidin-1-yl-ethoxy)-benzofuran-2-carboxylic acid [(S)-1-(1-benzenesulfonyl-3-oxo-azepan-4-ylcarbamoyl)-3-methyl-butyl]amide]",,,
8.28,"CC(C)C[C@@H](NC(=O)c1cc2ccccc2s1)C(=O)N[C@@H]1CCCN(S(=O)(=O)c2cccc[n+]2[O-])CC1=O [Example 46, Benzo[b]thiophene-2-carboxylic acid {(S)-3-methyl-1-[3-oxo-1-(1-oxy-pyridine-2-sulfonyl)-azepan-4-ylcarbamoyl]-butyl}amide]",8.21,,
8.17,"Cc1oc(-c2ccccc2)nc1C(=O)N[C@H](CC(C)C)C(=O)NC1CCCN(S(=O)(=O)c2cccc[n+]2[O-])CC1=O (stereo partly drawn) [Example 117, 5-Methyl-2-phenyl-oxazole-4-carboxylic acid {(S)-3-methyl-1-[3-oxo-1-(1-oxy-pyridine-2-sulfonyl)-azepan-4-ylcarbamoyl]-butyl}amide]",7.85,,
8.52,"CC(C)C[C@@H](NC(=O)c1cc2cc(OCCN3CCOCC3)ccc2o1)C(=O)NC1CCCN(C(=O)Cc2cccc(-c3ccccn3)c2)CC1=O (stereo partly drawn) [Example 3, 5-(2-morpholino-4-yl-ethoxy)-benzofuran-2-carboxylic acid ((S)-3-methyl-1-{3-oxo-1-[2-(3-pyridin-2-yl-phenyl)acetyl]-azepan-4-ylcarbamoyl}-butyl)amide]",,,
7.02,"CC(C)C[C@@H](NC(=O)c1ccc([N+](=O)[O-])o1)C(=O)N[C@@H]1CCCN(S(=O)(=O)c2ccccn2)CC1=O (stereo in doubt) [Example 35, 5-Nitro-furan-2-carboxylic acid {(S)-3-methyl-1-[3-oxo-1-(pyridine-2-sulfonyl)-azepan-4-ylcarbamoyl]-butyl}amide]",,,

Compound,pKi (Falcipain 2),pKi (Cruzain),Ki (Rhodazain) [nM],pKi (Rhodazain; read-out: Rhodazain Ki)
"COc1cccc2cc(C(=O)N[C@@H](CC(C)C)C(=O)N[C@H]3CCCN(S(=O)(=O)c4ccccc4F)CC3=O)oc12 [Example 93, 7-Methoxy-benzofuran-2-carboxylic acid-{(S)-1-[1-(2-fluoro-benzenesulfonyl)-3-oxo-azepan-4-ylcarbamoyl]-3-methyl-butyl}-amide]",8.15,7.96,11,
"COc1ccc2oc(C(=O)N[C@@H](CC(C)C)C(=O)N[C@H]3CCCN(S(=O)(=O)c4nccs4)CC3=O)cc2c1 [Example 124, 5-Methoxybenzofuran-2-carboxylic acid {(S)-3-methyl-1-[3-oxo-1-(thiazole-2-sulfonyl)-azepan-4-ylcarbamoyl]-buty}amide]",8.31,8.70,2.2,
Benzofblthiophene-2-carboxylic acid {(S)-3-methyl-1-[3-oxo-1-(1-oxy-pyridine-2-sulfonyl)-azepan-4-ylcarbamoyl]-butyl}amide [Example 51],8.29,8.19,,8.52
"CC(C)C[C@@H](NC(=O)c1cc2ccccc2o1)C(=O)NC1CCCN(S(=O)(=O)c2ccccn2)CC1=O (single isomer, unassigned) [Example 21]",8.00,8.42,3.2,
"COc1ccc2oc(C(=O)N[C@H](CC(C)C)C(=O)N[C@@H]3CCCN(S(=O)(=O)c4ccccn4)CC3=O)cc2c1 (single isomer, unassigned) [Example 69]",8.25,,2.2,
"[2H]C1(NC(=O)C(CC(C)C)NC(=O)c2cc3ccccc3o2)CCCN(S(=O)(=O)c2ccccn2)C([2H])([2H])C1=O [Example 100, Benzofuran-2-carboxylic acid {(S)-3-methyl-1-[(2,2′,4-tridueterio)-3-oxo-1-(pyridine-2-sulfonyl)-azepan-4-ylcarbamoyl]-butyl}amide]",8.19,,2.5,
"CC(C)C[C@@H](NC(=O)c1ccc2cc[nH]c2c1)C(=O)N[C@@H]1CCCN(S(=O)(=O)c2ccccn2)CC1=O (stereo in doubt) [Example 58, 1H-Indole-6-carboxylic acid {(S)-3-methyl-1-[3-oxo-1-(pyridine-2-sulfonyl)-azepan-4-ylcarbamoyl]-butyl}amide]",8.15,,3.1,
"CC(C)C[C@@H](NC(=O)c1ccc(-c2cccc(C(F)(F)F)c2)o1)C(=O)N[C@@H]1CCCN(S(=O)(=O)c2cccc[n+]2[O-])CC1=O [Example 119, 5-(3-Trifluoromethyl-phenyl)-furan-2-carboxylic acid {(S)-3-methyl-1-[3-oxo-1-(1-oxy-pyridine-2-sulfonyl)-azepan-4-ylcarbamoyl]-butyl}amide]",8.09,,5.1,
"CC(C)C[C@H](NC(=O)c1ccc(-c2cccc(C(F)(F)F)c2)o1)C(=O)N[C@@H]1CCCN(S(=O)(=O)c2ccccn2)CC1=O [Example 66, 5-(3-Trifluoromethyl-phenyl)-furan-2-carboxylic acid {(S)-3-methyl-1-[3-oxo-1-(pyridine-2-sulfonyl)-azepan-4-ylcarbamoyl]-butyl}amide]",8.00,,5.1,
